PMC3923314 (Biomacromolecules, 2013)

Legend:
[1] = after injection of free DOX; cited from earlier work
normal rat striatum = test: Convection-enhanced delivery; type: in vivo; conditions: CED, 20 μl, DOX 0.2 mg/ml, Sprague Dawley rats, a week after infusion

COc1cccc2c1C(=O)c1c(O)c3c(c(O)c1C2=O)C[C@@](O)(C(=O)CO)C[C@@H]3O[C@H]1C[C@H](N)[C@H](O)[C@H](C)O1 [free DOX, doxorubicin]
clearance time from blood circulation [1]: tens of minutes | toxicity to brain tissue (H&E staining) (normal rat striatum): significant tissue damage
